Results: patent US20250213701A1, “MEDICAMENT FOR TREATING HUMAN TUMOR BASED ON ERF3A-TARGETING PROTEOLYSIS MECHANISM” (SUZHOU DEGEN BIO-MEDICAL CO., LTD., priority 2022, published 2025)

Columns and labels:
Assay type in all cases: cell-based
[1] = tested on: KATO III cells; experiment: Anti-proliferative toxicity of C63 in tumor cell lines (CCK8): KATO III; conditions: Homo sapiens, 72 h, 3 days, read-out: Inhibition rate
Protocol: (§1) Example 83: Detection of Anti-Proliferative Toxicity of C63 in Some Tumor Cell Lines
(§2) KATOIII cells (purchased from the Cell Bank of the Chinese Academy of Sciences, Cat. No. TCHu229) were subcultured in a culture medium (IMDM medium+1% penicillin-streptomycin dual-antibiotic solution+10% fetal bovine serum) in an incubator at 5% carbon dioxide and 37° C.
KATO III cells were seeded at 8000 cells/well (90 μL) on a 96-well plate and cultured for 24 h.
(§3) 10 mM compound stock solutions were prepared in DMSO.
(§4) The compound stock solution was diluted with DMSO to give DMSO solutions 1-9 at concentrations of 0 μM, 2500 μM, 500 μM, 100 μM, 20 μM, 4 μM, 0.8 μM, 0.16 μM, and 0.032 μM.
(§5) 2 μL of each of solutions 1-9 was added to 98 μL of the medium to give mixed solutions 11-19 of the compound and the medium.
(§6) 10 μL of each of solutions 11-19 was added to the above cell seed solution to give a total volume of 100 μL (90 μL+10 μL).
(§7) The concentrations of the compound in the wells were 0 μM, 5.0 μM, 1.0 μM, 0.2 μM, 0.04 μM, 0.008 μM, 0.0016 μM, 0.00032 μM, and 0.000064 μM. All concentrations were in triplicate.
(§8) After the above-treated cells were cultured for 3 days, 10 μL of the CCK8 solution (DOJINDO, Cat. No. PF725) was added to each well. The plate was incubated in an incubator at 37° C. for 1-4 h and then detected on a microplate reader for the reading at 450 nm.

[2] = tested on: MCF-7 cells; experiment: Anti-proliferative toxicity of C63 in tumor cell lines (CCK8): MCF-7; conditions: Homo sapiens, MCF7, 72 h, 3 days, read-out: Inhibition rate
Protocol: as §1
as §2, with “MCF-7” for “KATOIII”, “SCSP-531)” for “TCHu229)”, “(MEM” for “(IMDM”, “serum+0.01 mg/mL recombinant human insulin)” for “serum)”
MCF-7 cells were seeded at 5000 cells/well (90 μL) on a 96-well plate and cultured for 24 h.
as §3, §4, §5, §6, §7, §8

[3] = tested on: MDA-MB-231 cells; experiment: Anti-proliferative toxicity of C63 in tumor cell lines (CCK8): MDA-MB-231; conditions: Homo sapiens, 72 h, 3 days, read-out: Inhibition rate
Protocol: as §1
MDA-MB-231 cells (purchased from the Cell Bank of the Chinese Academy of Sciences, Cat. No. TCHu227) were subcultured in a culture medium (L15 medium+1% penicillin-streptomycin dual-antibiotic solution+10% fetal bovine serum) in an incubator at 37° C.
MDA-MB-231 cells were seeded at 5000 cells/well (90 μL) on a 96-well plate and cultured for 24 h.
as §3, §4, §5, §6, §7, §8

[4] = tested on: U251 cells; experiment: Anti-proliferative toxicity of C63 in tumor cell lines (CCK8): U251; conditions: Homo sapiens, U-251, 72 h, 3 days, read-out: Inhibition rate
Protocol: as §1
U251 cells (purchased from the Cell Bank of the Chinese Academy of Sciences, Cat. No. TCHu58) were subcultured in a culture medium (DMEM medium+1% penicillin-streptomycin dual-antibiotic solution+10% fetal bovine serum) in an incubator at 5% carbon dioxide and 37° C.
U251 cells were seeded at 2000 cells/well (90 μL) on a 96-well plate and cultured for 24 h.
as §3, §4, §5, §6, §7, §8

[5] = tested on: NCI-N87 cells; experiment: Anti-proliferative toxicity of C63 in tumor cell lines (CCK8): NCI-N87; conditions: Homo sapiens, 72 h, 3 days, read-out: Inhibition rate
Protocol: as §1
NCI-N87 cells (purchased from the Cell Bank of the Chinese Academy of Sciences, Cat. No. TCHu130) were subcultured in a culture medium (RPMI-1640 medium+1% penicillin-streptomycin dual-antibiotic solution+10% fetal bovine serum) in an incubator at 5% carbon dioxide and 37° C.
NCI-N87 cells were seeded at 8000 cells/well (90 μL) on a 96-well plate and cultured for 24 h.
as §3, §4, §5, §6, §7, §8

In the case of C[C@]12C=CC(=O)N[C@@H]1CC[C@@H]1[C@@H]2CC[C@]2(C)[C@@H](C(=O)Nc3cccc(N[C@@H]4CCC[C@@H](Nc5cccc6c5C(=O)N([C@H]5CCC(=O)NC5=O)C6=O)C4)c3)CC[C@@H]12 [C63, N-(3-(N—(N-(4-(2-(3S-(2,6-dioxopiperidine))-isoindole-1,3-dione))-1R,3R-cyclohexanediamine))phenyl)-3-oxo-4-aza-5α-androst-1-ene-17β-carboxamide], the inhibition at 64 pM ([1]; 0.000064 μM) is reported as 1.09%, the inhibition at 0.00032 µM ([1]; 0.000320 μM) is reported as 2.17% and the inhibition at 0.0016 µM ([1]; 0.001600 μM) is reported as 15.9%. For the same molecule, the inhibition at 0.008 µM ([1]; 0.008000 μM) was 51.5%, the inhibition at 0.04 µM ([1]; 0.040000 μM) was 67.9% and the inhibition at 0.2 µM ([1]; 0.200000 μM) was 74.8%. It also gave an inhibition at 1 µM ([1]; 1.000000 μM) of 74.7%, an inhibition at 5 µM ([1]; 5.000000 μM) of 72.3% and an inhibition at 64 pM ([2]; 0.000064 μM) of 6.61%. For the same molecule, the inhibition at 0.00032 µM ([2]; 0.000320 μM) was 14.5%, the inhibition at 0.0016 µM ([2]; 0.001600 μM) was 36.8% and the inhibition at 0.008 µM ([2]; 0.008000 μM) was 46%. The inhibition at 0.04 µM ([2]; 0.040000 μM) was 50.2%, the inhibition at 0.2 µM ([2]; 0.200000 μM) was 54.9% and the inhibition at 1 µM ([2]; 1.000000 μM) was 57.6%. It also gave an inhibition at 5 µM ([2]; 5.000000 μM) of 61.4%, an inhibition at 64 pM ([3]; 0.000064 μM) of 27.6% and an inhibition at 0.00032 µM ([3]; 0.000320 μM) of 62.8%. For the same molecule, the inhibition at 0.0016 µM ([3]; 0.001600 μM) was 75.6%, the inhibition at 0.008 µM ([3]; 0.008000 μM) was 79.3% and the inhibition at 0.04 µM ([3]; 0.040000 μM) was 80.1%. The inhibition at 0.2 µM ([3]; 0.200000 μM) was 79.9%, the inhibition at 1 µM ([3]; 1.000000 μM) was 78.8% and the inhibition at 5 µM ([3]; 5.000000 μM) was 80.4%. The inhibition at 64 pM ([4]; 0.000064 μM) was 22%, the inhibition at 0.00032 µM ([4]; 0.000320 μM) was 21.7% and the inhibition at 0.0016 µM ([4]; 0.001600 μM) was 53.4%. It also gave an inhibition at 0.008 µM ([4]; 0.008000 μM) of 67.8%, an inhibition at 0.04 µM ([4]; 0.040000 μM) of 69% and an inhibition at 0.2 µM ([4]; 0.200000 μM) of 71.7%. It also gave an inhibition at 1 µM ([4]; 1.000000 μM) of 72.2%, an inhibition at 5 µM ([4]; 5.000000 μM) of 72.2% and an inhibition at 64 pM ([5]; 0.000064 μM) of 7.79%. For the same molecule, the inhibition at 0.00032 µM ([5]; 0.000320 μM) was 32.7%, the inhibition at 0.0016 µM ([5]; 0.001600 μM) was 61% and the inhibition at 0.008 µM ([5]; 0.008000 μM) was 66.7%. It also gave an inhibition at 0.04 µM ([5]; 0.040000 μM) of 64.1%, an inhibition at 0.2 µM ([5]; 0.200000 μM) of 62.5% and an inhibition at 1 µM ([5]; 1.000000 μM) of 64%. For the same molecule, the inhibition at 5 µM ([5]; 5.000000 μM) was 65.2%.
